Data on 26 compounds can be found in patent US6255339A, “Tetrahydronaphthofuranone derivatives and process for producing the same” (Meiji Seika Kaisha, Ltd., priority 1996, dated 2001).

The target in one data set is T1, progesterone receptor (Sus scrofa, UniProt D0EWS6).
T1 construct: from tissue; host or cells: hog uterus, cytosol (100,000×g supernatant)
T1 sequence (D0EWS6 1-934): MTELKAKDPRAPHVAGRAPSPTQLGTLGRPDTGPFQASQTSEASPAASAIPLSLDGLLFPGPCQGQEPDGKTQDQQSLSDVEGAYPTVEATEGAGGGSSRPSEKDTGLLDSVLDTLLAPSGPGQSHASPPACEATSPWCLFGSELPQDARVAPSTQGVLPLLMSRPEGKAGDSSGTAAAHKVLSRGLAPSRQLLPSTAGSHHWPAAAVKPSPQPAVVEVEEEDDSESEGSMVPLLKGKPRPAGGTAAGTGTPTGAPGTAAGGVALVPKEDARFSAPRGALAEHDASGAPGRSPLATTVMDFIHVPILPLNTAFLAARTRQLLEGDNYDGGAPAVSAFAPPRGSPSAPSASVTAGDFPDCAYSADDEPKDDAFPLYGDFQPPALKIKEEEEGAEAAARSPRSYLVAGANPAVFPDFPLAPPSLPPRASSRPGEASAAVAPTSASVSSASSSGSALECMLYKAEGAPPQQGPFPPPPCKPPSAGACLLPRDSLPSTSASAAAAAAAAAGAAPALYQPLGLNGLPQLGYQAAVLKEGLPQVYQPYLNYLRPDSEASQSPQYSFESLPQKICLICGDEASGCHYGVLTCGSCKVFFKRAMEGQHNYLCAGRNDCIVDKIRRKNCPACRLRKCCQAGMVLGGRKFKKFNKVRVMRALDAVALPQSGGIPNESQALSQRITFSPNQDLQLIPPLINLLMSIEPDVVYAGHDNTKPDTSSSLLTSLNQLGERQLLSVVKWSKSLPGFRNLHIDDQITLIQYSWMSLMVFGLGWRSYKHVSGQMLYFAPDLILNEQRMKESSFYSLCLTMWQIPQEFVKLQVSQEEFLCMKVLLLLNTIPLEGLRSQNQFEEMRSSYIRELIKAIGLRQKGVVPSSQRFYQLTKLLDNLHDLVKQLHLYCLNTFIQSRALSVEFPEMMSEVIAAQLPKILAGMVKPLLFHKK
Put plainly: progesterone receptor binding inhibition ([^3 H]-progesterone, cytosol from uteri of hogs). The conditions noted are these: [^3 H]-progesterone ligand, hog uterus cytosol, 60 min at 4° C.; read-out: Inhibitory activity (IC50) against progesterone receptor binding. On the procedure:
That is, uteri taken from hogs in 5 mM phosphate buffer were disrupted using Polytron homogenizer, and the resulting solution was centrifuged (100,000×g, 30 min) to separate the supernatant, thereby preparing a cytosol containing progesterone receptor. […] Then, 100 μl of a 0.5% activated carbon solution was added to the reaction solution, and the mixture was allowed to stand for 10 min and then centrifuged (2,000×g, 10 min). The radioactivity of the supernatant was measured with a liquid scintillation counter.
Separately, the radioactivity was measured in the same manner as described above, except that no test drug was added. Further, the radioactivity was measured in the same manner as described above, except that 10 μl of Medroxyprogesterone Acetate (MPA) (10 μg/ml) was added instead of the test drug. The radioactivity with no test drug added was defined as the amount of total binding of [^3 H]-progesterone to the cytosol, and the radioactivity with MPA added was defined as the amount of non-specific binding. The inhibition ratio was calculated from these measured values by the following equation to determine the binding inhibitory activity (IC50). [formula]
Regarding `CC1=C2C[C@@]3(C)C(=C[C@H](O)[C@H](OC(=O)CCl)[C@@H]3C)C=C2OC1=O` [Example A12, (4aR,5R,6R,7S)-6-Chloroacetoxy-7-hydroxy-4a,5,6,7-tetrahydro-3,4a,5-trimethylnaphtho[2,3-b]furan-2(4H)-one], the IC50 is 83 nM.

With `CCO[C@@H]1C=C2C=C3OC(=O)C(C)=C3C[C@]2(C)[C@@H](C)[C@H]1OC(=O)c1cccs1` [Example A41, (4aR,5R,6R,7R)-7-Ethoxy-6-(2-thiophencarbonyl)oxy-4a,5,6,7-tetrahydro-3,4a,5-trimethylnaphtho[2,3-b]furan-2(4H)-one], the IC50 is 400 nM.

In the case of `CC1=C2C[C@@]3(C)C(=CC[C@H](OC(=O)c4ccccc4)[C@@H]3C)C=C2OC1=O` (relative stereo) [Example B7, (4aR*,5R*,6S*)-6-Benzoyloxy-4a,5,6,7-tetrahydro-3,4a,5-trimethylnaphtho[2,3-b]furan-2(4H)-one], the concentration for half-maximal inhibition (IC50) amounted to 54 nM.

Take `CC1=C2C[C@@]3(C)C(=C[C@@H](O)[C@H](OC(=O)c4cccs4)[C@@H]3C)C=C2OC1=O` [Example A45, (4aR,5R,6R,7R)-7-Hydroxy-6-(2-thiophencarbonyl)oxy-4a,5,6,7-tetrahydro-3,4a, 5-trimethylnaphtho[2,3-b]furan-2(4H)-one]: the concentration for half-maximal inhibition (IC50) is 29 nM.

As to `CC(=O)O[C@H]1CC=C2C=C3OC(=O)C(C)=C3C[C@]2(C)[C@H]1C` [B42 (Natural type)], the half-inhibitory concentration (IC50) was determined as 33 nM.

Regarding `CC1=C2C[C@@]3(C)C(=C[C@H](O)[C@H](OC(=O)C4CC4)[C@@H]3C)C=C2OC1=O` [Example A17, (4aR,5R,6R,7S)-6-Cyclopropylcarbonyloxy-7-hydroxy-4a,5,6,7-tetrahydro-3,4a,5-trimethylnaphtho[2,3-b]furan-2(4H)-one], the IC50 was determined as 17 nM.

Take `CO[C@H]1C=C2C=C3OC(=O)C(C)=C3C[C@]2(C)[C@@H](C)[C@H]1OC(C)=O` [Example A30, (4aR,5R,6R,7S)-6-Acetoxy-7-methoxy-4a,5,6,7-tetrahydro-3,4a, 5-trimethylnaphtho[2,3-b]furan-2(4H)-one]: the IC50 was determined as 47 nM.

As for `CC1=C2C[C@@]3(C)C(=C[C@H](O)[C@H](OC(=O)c4ccccc4)[C@@H]3C)C=C2OC1=O` [Example A21, (4aR,5R,6R,7S)-6-Benzoyloxy-7-hydroxy-4a,5,6,7-tetrahydro-3,4a,5-trimethylnaphtho[2,3-b]furan-2(4H)-one], the concentration for half-maximal inhibition (IC50) was 27 nM.

Take `CC1=C2C[C@@]3(C)C(=C[C@H](O)[C@H](OC(=O)C4CCCCC4)[C@@H]3C)C=C2OC1=O` [Example A19, (4aR,5R,6R,7S)-6-Cyclohexylcarbonyloxy-7-hydroxy-4a,5,6,7-tetrahydro-3,4a,5-trimethylnaphtho[2,3-b]furan-2(4H)-one]: the IC50 was determined as 47 nM.

For the compound `CC1=C2C[C@@]3(C)C(=C[C@H](O)[C@H](OC(=O)c4ccco4)[C@@H]3C)C=C2OC1=O` [Example A3, (4aR,5R,6R,7S)-6-(2-Furancarbonyl)oxy-7-hydroxy-4a,5,6,7-tetrahydro-3,4a,5-trimethylnaphtho[2,3-b]furan-2(4H)-one], the half-inhibitory concentration (IC50) came out at 12 nM.

Regarding `COCO[C@H]1C=C2C=C3OC(=O)C(C)=C3C[C@]2(C)[C@@H](C)[C@H]1OC(=O)c1ccccc1` [Example A8, (4aR,5R,6R,7S)-6-Benzoyloxy-7-methoxymethoxy-4a,5,6,7-tetrahydro-3,4a,5-trimethylnaphtho[2,3-b]furan-2(4H)-one], the 50% inhibitory concentration (IC50) turned out to be 97 nM.

With `CCCC(=O)O[C@H]1CC=C2C=C3OC(=O)C(C)=C3C[C@]2(C)[C@H]1C` (relative stereo) [Example B4, (4aR*,5R*,6S*)-6-Butyryloxy-4a,5,6,7-tetrahydro-3,4a,5-trimethylnaphtho[2,3-b]furan-2(4H)-one], the IC50 came out at 53 nM.

Consider `CCC(=O)O[C@H]1[C@H](OC)C=C2C=C3OC(=O)C(C)=C3C[C@]2(C)[C@H]1C` [Example A10, (4aR,5R,6R,7R)-7-Methoxy-6-propionyloxy-4a,5,6,7-tetrahydro-3,4a,5-trimethylnaphtho[2,3-b]furan-2(4H)-one], for which the IC50 was 75 nM.

Turning to `CC(=O)O[C@@H]1CC=C2C=C3OC(=O)C(C)=C3C[C@@]2(C)[C@@H]1C` [Example B42 (Nonnatural type)], the 50% inhibitory concentration (IC50) is 797 nM.

Consider `CC(=O)O[C@H]1CC=C2C=C3OC(=O)C=C3C[C@]2(C)[C@H]1C` (relative stereo) [Example B27, (4aR*,5R*,6S*)-6-Acetoxy-4a,5-dimethyl-4a,5,6,7-tetrahydronaphtho [2,3-b]furan-2(4H)-one], for which the half-maximal inhibitory concentration (IC50) stood at 39 nM.

On to `CCC(=O)O[C@H]1C=C2C=C3OC(=O)C(C)=C3C[C@]2(C)[C@@H](C)[C@H]1O` [Example A1, (4aR,5R,6R,7S)-6-Hydroxy-7-propionyloxy-4a,5,6,7-tetrahydro-3,4a,5-trimethylnaphtho[2,3-b]furan-2(4H)-one], for which the IC50 came to 1000 nM.

On to `CC(=O)O[C@@H]1C=C2C=C3OC(=O)C(C)=C3C[C@]2(C)[C@@H](C)[C@H]1OC(=O)c1ccco1` [Example A44, (4aR,5R,6R,7R)-7-Acetoxy-6-(2-furancarbonyl)oxy-4a,5,6,7-tetrahydro-3,4a,5-trimethylnaphtho[2,3-b]furan-2(4H)-one], for which the concentration for half-maximal inhibition (IC50) turned out to be 276 nM.

Regarding `CC1=C2C[C@@]3(C)C(=C[C@H](OCc4ccccc4)[C@H](O)[C@@H]3C)C=C2OC1=O` [Example A7, (4aR,5R,6R,7S)-7-Benzyloxy-6-hydroxy-4a,5,6,7-tetrahydro-3,4a,5-trimethylnaphtho[2,3-b]furan-2(4H)-one], the 50% inhibitory concentration (IC50) amounted to 2840 nM.

Turning to `CC1=C2C[C@@]3(C)C(=C[C@H](O)[C@H](OC(=O)c4ccc([N+](=O)[O-])cc4)[C@@H]3C)C=C2OC1=O` [Example A23, (4aR,5R,6R,7S)-7-Hydroxy-6-(4-nitrobenzoyl)oxy-4a,5,6,7-tetrahydro-3,4a,5-trimethylnaphtho[2,3-b]furan-2(4H)-one], the IC50 worked out at 18 nM.

In the case of `CCCNC(=O)O[C@H]1[C@@H](O)C=C2C=C3OC(=O)C(C)=C3C[C@]2(C)[C@H]1C` [Example A6b, (4aR,5R,6R,7S)-7-Hydroxy-6-(n-propyl)carbamoyloxy-4a,5,6,7-tetrahydro-3,4a,5-trimethylnaphtho[2,3-b]furan-2(4H)-one], the IC50 was 288 nM.

Turning to `CCC(=O)O[C@H]1CC=C2C=C3OC(=O)C=C3C[C@]2(C)[C@H]1C` (relative stereo) [Example B28], the 50% inhibitory concentration (IC50) is 66 nM.

`CC(=O)O[C@H]1CC=C2C=C3OC(=O)C(C)=C3C[C@]2(C)[C@H]1C` (relative stereo) [Example B2, (4aR*,5R*,6S*)-6-Acetoxy-4a,5,6,7-tetrahydro-3,4a,5-trimethylnaphtho[2,3-b]furan-2(4H)-one]: the 50% inhibitory concentration (IC50) stood at 55 nM.

With `C[C@H]1[C@@H](OC(=O)c2ccco2)CC=C2C=C3OC(=O)C=C3C[C@@]21C` (relative stereo) [Example B30, (4aR*,5R*,6S*)-4a,5-Dimethyl-6-(2-furoyl)oxy-4a,5,6,7-tetrahydronaphtho[2,3-b]furan-2(4H)-one], the 50% inhibitory concentration (IC50) stood at 60 nM.

Test system in a further data set: not listed separately
Put plainly: Solubility. Particulars: organic solvents. The class given is physicochemical.
For `CC1=C2C[C@@]3(C)C(=C[C@H](O)[C@H](O)[C@@H]3C)C=C2OC1=O` [PF1092C], the “Solubility (solvents in which soluble)” value was “soluble in chloroform, acetone, ethyl acetate, methanol and dimethyl sultoxide”.

Turning to `CC(=O)O[C@H]1[C@@H](O)C=C2C=C3OC(=O)C(C)=C3C[C@]2(C)[C@H]1C` [PF1092A], the “Solubility (solvents in which soluble)” value is “soluble in chloroform, acetone, ethyl acetate, methanol and dimethyl sulioxide”.

On to `CC(=O)O[C@H]1C=C2C=C3OC(=O)C(C)=C3C[C@]2(C)[C@@H](C)[C@H]1O` [PF1092B], for which the “Solubility (solvents in which soluble)” value is “soluble in chloroform, acetone, ethyl acetate, methanol and dimethyl sulioxide”.

The data set is the same for the next values; noted with them: water and hexane.
In the case of `CC1=C2C[C@@]3(C)C(=C[C@H](O)[C@H](O)[C@@H]3C)C=C2OC1=O` [PF1092C], the “Solubility (solvents in which insoluble)” value was “insoluble in water and hexane”.

For `CC(=O)O[C@H]1[C@@H](O)C=C2C=C3OC(=O)C(C)=C3C[C@]2(C)[C@H]1C` [PF1092A], the “Solubility (solvents in which insoluble)” value is “insoluble in water and hexane”.

Consider `CC(=O)O[C@H]1C=C2C=C3OC(=O)C(C)=C3C[C@]2(C)[C@@H](C)[C@H]1O` [PF1092B], for which the “Solubility (solvents in which insoluble)” value is “insoluble in water and hexane”.
